We go through 1 compound from ChEMBL document CHEMBL2046359, “Novel tricyclic indeno[2,1-d]pyrimidines with dual antiangiogenic and cytotoxic activities as potent antitumor agents” (Bioorg Med Chem, 2012).

Assay [1] deals with Vascular endothelial growth factor receptor 2 (Homo sapiens, UniProt P35968). Type of assay: cell-based, U-251.
For assay [2], the system named is A-431. Kind of assay: Antiproliferative activity against human A431 cells after 48 hrs by CYQUANT assay. To be noted: A-431, 48 h. The class given is functional, cell-based.
The target of assay [3] is T1, Dihydroorotate dehydrogenase (Plasmodium falciparum, UniProt Q54A96).
T1 sequence (Q54A96 whole entry): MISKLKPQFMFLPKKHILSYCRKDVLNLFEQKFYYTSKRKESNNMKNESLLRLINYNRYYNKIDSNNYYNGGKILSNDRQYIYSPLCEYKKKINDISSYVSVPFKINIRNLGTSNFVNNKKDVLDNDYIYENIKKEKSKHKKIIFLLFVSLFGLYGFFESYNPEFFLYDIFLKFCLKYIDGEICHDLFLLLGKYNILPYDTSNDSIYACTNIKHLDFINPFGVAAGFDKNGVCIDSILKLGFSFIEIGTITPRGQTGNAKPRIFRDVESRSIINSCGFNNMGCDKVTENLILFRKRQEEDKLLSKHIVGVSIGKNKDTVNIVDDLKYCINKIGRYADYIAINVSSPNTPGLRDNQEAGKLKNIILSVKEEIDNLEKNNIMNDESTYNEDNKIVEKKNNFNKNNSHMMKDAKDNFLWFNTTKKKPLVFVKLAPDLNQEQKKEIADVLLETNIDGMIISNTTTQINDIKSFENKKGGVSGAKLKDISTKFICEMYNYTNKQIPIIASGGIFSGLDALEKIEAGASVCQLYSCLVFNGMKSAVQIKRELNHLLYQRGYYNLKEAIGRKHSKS
Nature of the assay: Inhibition of Plasmodium falciparum DHODH.

The test system of assay [4] is CCRF-CEM. Kind of assay: cells. To be noted: Homo sapiens.
For assay [5], the system named is K562. Kind of assay: cells. The note with it: Homo sapiens.
Assay [6] concerns MOLT-4. Kind of assay: cells. The note with it: Homo sapiens.
Assay [7] has as its system SR. Kind of assay: cells. To be noted: Homo sapiens.
Assay [8] relates to NCI-H226. Kind of assay: cells. The note with it: Homo sapiens.
For assay [9], the system named is COLO 205. Kind of assay: cells. The note with it: Homo sapiens.
For assay [10], the system named is KM12. Nature of the assay: cells. The note with it: Homo sapiens.
The subject of assay [11] is SF-268. Kind of assay: cells. To be noted: Homo sapiens.
For assay [12], the system named is SF-539. Nature of the assay: cells. The note with it: Homo sapiens.
Assay [13] relates to SNB-19. Kind of assay: cells. To be noted: Homo sapiens.
Assay [14] relates to PC-3. Kind of assay: cells. The note with it: Homo sapiens.
In assay [15] the test system is OVCAR-4. Kind of assay: cells. To be noted: Homo sapiens.
For assay [16], the system named is OVCAR-8. Nature of the assay: cells. To be noted: Homo sapiens.
Assay [17] deals with A498. Nature of the assay: cells. The note with it: Homo sapiens.
Assay [18] deals with SN12C. Nature of the assay: cells. The note with it: Homo sapiens.
Assay [19] is described as follows: cells. The note with it: Homo sapiens, NCI/ADR-RES.
For assay [20], the system named is T47D. Nature of the assay: cells. To be noted: Homo sapiens.
Assay [21] concerns B16-F10. Nature of the assay: Antitumor activity against mouse B16F10 cells allografted in NCr nu/nu mouse assessed as tumor growth reduction at 35 mg/kg, ip administered three times weekly for 2 weeks.

Active and inactive are the calls of the source. The rule behind the calls is not given here.

Sequence of Vascular endothelial growth factor receptor 2 (P35968 whole entry): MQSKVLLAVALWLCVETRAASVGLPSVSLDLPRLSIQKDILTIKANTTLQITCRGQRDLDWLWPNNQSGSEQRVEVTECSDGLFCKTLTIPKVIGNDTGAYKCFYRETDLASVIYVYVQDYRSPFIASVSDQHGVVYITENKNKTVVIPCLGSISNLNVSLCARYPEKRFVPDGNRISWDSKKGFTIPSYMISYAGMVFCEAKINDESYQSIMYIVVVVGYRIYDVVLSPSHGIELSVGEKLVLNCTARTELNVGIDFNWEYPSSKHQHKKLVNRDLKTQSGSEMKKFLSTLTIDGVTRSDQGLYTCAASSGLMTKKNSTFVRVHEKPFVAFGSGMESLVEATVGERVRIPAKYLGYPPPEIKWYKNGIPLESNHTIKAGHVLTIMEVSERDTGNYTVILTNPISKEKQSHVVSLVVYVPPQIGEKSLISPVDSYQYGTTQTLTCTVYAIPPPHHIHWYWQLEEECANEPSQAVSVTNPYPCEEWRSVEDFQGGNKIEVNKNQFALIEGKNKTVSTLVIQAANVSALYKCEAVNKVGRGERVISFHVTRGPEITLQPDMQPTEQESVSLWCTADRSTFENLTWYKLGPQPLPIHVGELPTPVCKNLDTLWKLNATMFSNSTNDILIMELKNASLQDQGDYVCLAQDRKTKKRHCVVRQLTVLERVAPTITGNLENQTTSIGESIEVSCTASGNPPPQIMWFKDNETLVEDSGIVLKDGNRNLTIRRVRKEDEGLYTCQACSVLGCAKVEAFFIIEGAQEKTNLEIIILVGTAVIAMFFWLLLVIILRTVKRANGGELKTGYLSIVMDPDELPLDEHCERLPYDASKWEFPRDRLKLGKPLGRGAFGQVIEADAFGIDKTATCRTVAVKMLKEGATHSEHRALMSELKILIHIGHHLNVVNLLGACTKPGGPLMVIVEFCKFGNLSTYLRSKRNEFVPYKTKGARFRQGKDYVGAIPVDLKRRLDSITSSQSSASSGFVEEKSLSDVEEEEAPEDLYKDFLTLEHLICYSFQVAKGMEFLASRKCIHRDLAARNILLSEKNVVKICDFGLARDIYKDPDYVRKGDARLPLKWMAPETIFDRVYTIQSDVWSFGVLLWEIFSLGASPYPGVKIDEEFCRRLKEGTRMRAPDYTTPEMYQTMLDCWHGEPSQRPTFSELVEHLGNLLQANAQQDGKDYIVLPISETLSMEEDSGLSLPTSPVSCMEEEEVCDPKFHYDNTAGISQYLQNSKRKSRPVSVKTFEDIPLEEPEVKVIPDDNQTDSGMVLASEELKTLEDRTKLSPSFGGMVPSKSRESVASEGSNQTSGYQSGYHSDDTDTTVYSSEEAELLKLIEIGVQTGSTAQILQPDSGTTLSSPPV

For `Nc1nc2c(c(Nc3ccc(Cl)cc3)n1)-c1ccccc1C2`, the values for the IC50 in assay [1], in [2] and in assay [3] were above 200000 nM, 9700 nM and above 200000 nM, respectively. Further, the GI50 in [4] was determined as 31.2 nM; in [5], 366 nM; in assay [6], 66.1 nM; in assay [7], 484 nM; in assay [8], 2140 nM; in [9], 638 nM. Also, the GI50 came out at 330 nM in assay [10]; 86.2 nM in assay [11]; 381 nM in assay [12]; 113 nM in assay [13]; 715 nM in assay [14]; 2090 nM in assay [15]. The GI50 in assay [16] came out at 216 nM; in assay [17] it was 2490 nM; in assay [18], 189 nM; in assay [19], 787 nM; in assay [20], 2900 nM. Besides, the “growth inhibition (GI)” value in [21] is “Active”.
